Experimental data as given in US20220009918A1, “Chemical Compounds” (GlaxoSmithKline Intellectual Property Development Limited, priority 2018, published 2022).

Target: T1, human H-PGDS (Homo sapiens, UniProt O60760)
T1 construct: Full length human H-PGDS cDNA (Invitrogen Ultimate ORF IOH13026) was amplified by PCR; 6-His (N); TEV protease cleavage site (N); made in house; host or cells: E. coli BL21 (DE3*) for H-PGDS; Sf9 insect cells (baculovirus) for COX-2
Test: H-PGDS RapidFire high throughput mass spectrometry assay
Type: biochemical
Conditions: inhibition of conversion of PGH2 to PGD2 by H-PGDS; mean pIC50; read-out: Potency Range (mean pIC50) (converted)
Description: H-PGDS RapidFire™ High Throughput Mass Spectrometry Assay
The H-PGDS RapidFire™ mass spectrometric assay monitors conversion of prostaglandin H2 (PGH2) to prostaglandin D2 (PGD2) by haematopoietic prostaglandin D synthase (H-PGDS). In the assay format described here, the substrate (PGH2) is formed in situ by the action of cyclooxygenase-2 on arachidonic acid. This first step is set up to be fast, and generates a burst of PGH2 at ˜10 μM. The PGH2 is then further converted to PGD2 by the H-PGDS enzyme. […] Plates are then read on the RapidFire™ high throughput solid phase extraction system (Agilent) which incorporates a solid phase extraction step coupled to a triple quadrupole mass spectrometer (AB SCIEX). Relative levels of PGD2 and PGF2α, which acts as a surrogate for substrate, are measured and a percent conversion calculated. Inhibitors are characterised as compounds which lower the conversion of PGH2 to PGD2.
Full length human H-PGDS cDNA (Invitrogen Ultimate ORF IOH13026) was amplified by PCR with the addition of a 5′ 6-His tag and TEV protease cleavage site. The PCR product was digested with NdeI and XhoI and ligated into pET22b+ (Merck Novagen®). Expression was carried out in E. coli strain BL21 (DE3*) using auto-induction Overnight Express™ Instant TB medium (Merck Novagen®) supplemented with 1% glycerol. The culture was first grown at 37° C. and the temperature was reduced to 25° C. when OD600 reached 2.0. Cells were harvested by centrifugation after a further 18 hours. 10 g of E. coli cell pellet was suspended to a total volume of 80 mL in lysis buffer (20 mM Tris-Cl pH 7.5, 300 mM NaCl, 20 mM imidazole, 5 mM p-mercaptoethanol, 10% glycerol). 1 mg/mL protease inhibitors (Protease Inhibitor Cocktail Set III, Merck Calbiochem®) and 1 mg/mL lysozyme were added to the cell suspension. The suspension was then sonicated for 5 min (UltraSonic Processor VCX 750, Cole-Parmer Instrument Co.) with a micro probe (50% amplitude, 10 sec on/off) and then centrifuged at 100,000 g for 90 minutes (at 4° C.). The supernatant was loaded onto a Ni-NTA HiTrap column (5 mL, GE Healthcare, pre-equilibrated in lysis buffer). The column was washed with 10 column volumes of lysis buffer and eluted with lysis buffer containing 500 mM imidazole. The pooled protein peak fractions were concentrated using a 10 kDa centrifugal filter at 3500 g and 4° C. (Amicon Ultra-15 centrifugal filter unit with Ultracel-10 membrane from Millipore). Further purification of the concentrated protein was carried out using gel filtration chromatography on a HiLoad 26/600 Superdex 75 preparative grade column (GE Healthcare Life Sciences) using 50 mM Tris pH 7.5, 50 mM NaCl, 1 mM dithiothreitol, 1 mM MgCl2. Fractions containing the protein were pooled, concentrated as described above, and stored at −80° C.
The full length human COX-2 gene (accession number L15326) was amplified by PCR to generate an EcoRI—HindIII fragment containing an in-frame FLAG tag. This was subcloned into pFastBac 1 (Invitrogen). The COX-2 FLAG plasmid was recombined into the baculovirus genome according to the BAC-to-BAC protocol described by Invitrogen. Transfection into Spodoptera frugiperda (Sf9) insect cells was performed using Cellfectin (Invitrogen), according to the manufacturer's protocol. Super Sf9 cells were cultured in EX420 media (SAFC Biosciences) to a density of approximately 1.5×10^6 cells/mL within a wave bioreactor. Recombinant virus was added at a Multiplicity of Infection (MOI) of 5 and the culture was allowed to continue for 3 days. Cells were harvested using a continuous feed centrifuge run at 2500 g at a rate of approximately 2 L/min with cooling. The resultant cell slurry was re-centrifuged in pots (2500 g, 20 min, 4° C.) and the cell paste was stored at −80° C. […]

T1 sequence (O60760 whole entry): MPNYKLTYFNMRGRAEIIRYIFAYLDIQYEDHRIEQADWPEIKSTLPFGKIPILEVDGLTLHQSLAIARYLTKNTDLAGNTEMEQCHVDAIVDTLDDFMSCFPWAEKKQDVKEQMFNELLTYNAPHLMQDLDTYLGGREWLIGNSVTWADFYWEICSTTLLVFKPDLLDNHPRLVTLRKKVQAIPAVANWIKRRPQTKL

Structure (SMILES) | IC50
Cc1ccnc(-c2ncc(C(=O)N[C@H]3CCNC3=O)s2)c1 [Example 47, (S)-2-(4-Methylpyridin-2-yl)-N-(2-oxopyrrolidin-3-yl)thiazole-5-carboxamide] | 10.2 to 100 nM
Cc1cc(-c2ncc(C(=O)N[C@H]3CCNC3=O)s2)cc(C(F)F)c1 [Example 48, (S)-2-(3-(Difluoromethyl)-5-methylphenyl)-N-(2-oxopyrrolidin-3-yl)thiazole-5-carboxamide] | 10.2 to 100 nM
O=C(N[C@H]1C(=O)N[C@@H]2CCC[C@@H]21)c1cnc(-c2cc(F)cc(Cl)c2)s1 [Example 50, 2-(3-Chloro-5-fluorophenyl)-N-((3R,3aS,6aR)-2-oxooctahydrocyclopenta[b]pyrrol-3-yl)thiazole-5-carboxamide] | 102 to 1000 nM
O=C(N[C@@H]1C(=O)N[C@H]2CCC[C@H]21)c1cnc(-c2cc(F)cc(Cl)c2)s1 [Example 51, 2-(3-Chloro-5-fluorophenyl)-N-((3S,3aR,6aS)-2-oxooctahydrocyclopenta[b]pyrrol-3-yl)thiazole-5-carboxamide] | 1.02 to 10 nM
O=C(N[C@@H]1C(=O)N[C@H]2COC[C@H]21)c1cnc(-c2cc(F)cc(Cl)c2)s1 [Example 53, 2-(3-Chloro-5-fluorophenyl)-N-((3S,3aR,6aR)-2-oxohexahydro-1H-furo[3,4-b]pyrrol-3-yl)thiazole-5-carboxamide] | 10.2 to 100 nM
O=C(N[C@H]1C(=O)N[C@@H]2COC[C@@H]21)c1cnc(-c2cc(F)cc(Cl)c2)s1 [Example 54, 2-(3-Chloro-5-fluorophenyl)-N-((3R,3aS,6aS)-2-oxohexahydro-1H-furo[3,4-b]pyrrol-3-yl)thiazole-5-carboxamide] | 10.2 to 100 nM
O=C(N[C@@H]1CC2(COC2)NC1=O)c1cnc(-c2cc(F)cc(Cl)c2)s1 [Example 56, (R)-2-(3-Chloro-5-fluorophenyl)-N-(6-oxo-2-oxa-5-azaspiro[3.4]octan-7-yl)thiazole-5-carboxamide] | 102 to 1000 nM
O=C(N[C@H]1CC2(COC2)NC1=O)c1cnc(-c2cc(F)cc(Cl)c2)s1 [Example 57, (S)-2-(3-Chloro-5-fluorophenyl)-N-(6-oxo-2-oxa-5-azaspiro[3.4]octan-7-yl)thiazole-5-carboxamide] | 1.02 to 10 nM
O=C(N[C@H]1C(=O)N[C@H]2CCC[C@H]21)c1cnc(-c2cc(F)cc(Cl)c2)s1 [Example 59, 2-(3-Chloro-5-fluorophenyl)-N-((3R,3aR,6aS)-2-oxooctahydrocyclopenta[b]pyrrol-3-yl)thiazole-5-carboxamide] | 102 to 1000 nM
O=C(N[C@@H]1C(=O)N[C@@H]2CCC[C@H]12)c1cnc(-c2cc(F)cc(Cl)c2)s1 [Example 60, 2-(3-Chloro-5-fluorophenyl)-N-((3S,3aS,6aR)-2-oxooctahydrocyclopenta[b]pyrrol-3-yl)thiazole-5-carboxamide] | 10.2 to 100 nM
C[C@@H]1C[C@@H](NC(=O)c2cnc(-c3cc(F)cc(Cl)c3)s2)C(=O)N1 [Example 61, 2-(3-Chloro-5-fluorophenyl)-N-((3R,5R)-5-methyl-2-oxopyrrolidin-3-yl)thiazole-5-carboxamide] | 102 to 1000 nM
C[C@@H]1C[C@H](NC(=O)c2cnc(-c3cc(F)cc(Cl)c3)s2)C(=O)N1 [Example 62, 2-(3-Chloro-5-fluorophenyl)-N-((3S,5R)-5-methyl-2-oxopyrrolidin-3-yl)thiazole-5-carboxamide] | 10.2 to 100 nM
CN1CC[C@H](NC(=O)c2cnc(-c3cc(F)cc(Cl)c3)s2)C1=O [Example 64, (S)-2-(3-Chloro-5-fluorophenyl)-N-(1-methyl-2-oxopyrrolidin-3-yl)thiazole-5-carboxamide] | 10.2 to 100 nM
CN(C(=O)c1cnc(-c2cc(F)cc(Cl)c2)s1)[C@H]1CCNC1=O [Example 66, (S)-2-(3-Chloro-5-fluorophenyl)-N-methyl-N-(2-oxopyrrolidin-3-yl)thiazole-5-carboxamide] | 1020 to 10000 nM
CN(C(=O)c1cnc(-c2cc(F)cc(Cl)c2)s1)[C@@H]1CCNC1=O [Example 67, (R)-2-(3-Chloro-5-fluorophenyl)-N-methyl-N-(2-oxopyrrolidin-3-yl)thiazole-5-carboxamide] | > 10000 nM
COc1cccc(-c2ncc(C(=O)N[C@H]3CCNC3=O)s2)c1 [Example 68, (S)-2-(3-Methoxyphenyl)-N-(2-oxopyrrolidin-3-yl)thiazole-5-carboxamide] | 10.2 to 100 nM
O=C(N[C@H]1CCNC1=O)c1cnc(-c2cccc(O)c2)s1 [Example 69, (S)-2-(3-Hydroxyphenyl)-N-(2-oxopyrrolidin-3-yl)thiazole-5-carboxamide] | 10.2 to 100 nM
C[C@]1(NC(=O)c2cnc(-c3cc(F)cc(Cl)c3)s2)CCNC1=O [Example 72, (S)-2-(3-Chloro-5-fluorophenyl)-N-(3-methyl-2-oxopyrrolidin-3-yl)thiazole-5-carboxamide] | 10.2 to 100 nM
C[C@@]1(NC(=O)c2cnc(-c3cc(F)cc(Cl)c3)s2)CCNC1=O [Example 73, (R)-2-(3-Chloro-5-fluorophenyl)-N-(3-methyl-2-oxopyrrolidin-3-yl)thiazole-5-carboxamide] | 102 to 1000 nM
C[C@H]1CNC(=O)[C@H]1NC(=O)c1cnc(-c2cc(F)cc(Cl)c2)s1 [Example 75, 2-(3-Chloro-5-fluorophenyl)-N-((3S,4S)-4-methyl-2-oxopyrrolidin-3-yl)thiazole-5-carboxamide] | 10.2 to 100 nM
C[C@@H]1CNC(=O)[C@@H]1NC(=O)c1cnc(-c2cc(F)cc(Cl)c2)s1 [Example 76, 2-(3-Chloro-5-fluorophenyl)-N-((3R,4R)-4-methyl-2-oxopyrrolidin-3-yl)thiazole-5-carboxamide] | 1020 to 10000 nM
O=C(N[C@H]1CCNC1=S)c1cnc(-c2cc(F)cc(Cl)c2)s1 [Example 77, (S)-2-(3-Chloro-5-fluorophenyl)-N-(2-thioxopyrrolidin-3-yl)thiazole-5-carboxamide] | 1.02 to 10 nM
O=C(N[C@H]1CCNC1=[Se])c1cnc(-c2cc(F)cc(Cl)c2)s1 [Example 78, (S)-2-(3-chloro-5-fluorophenyl)-N-(2-selenoxopyrrolidin-3-yl)thiazole-5-carboxamide] | 1.02 to 10 nM
O=C(NN1CCNC1=O)c1cnc(-c2cc(F)cc(Cl)c2)s1 [Example 79, 2-(3-Chloro-5-fluorophenyl)-N-(2-oxoimidazolidin-1-yl)thiazole-5-carboxamide] | 10.2 to 100 nM
O=C1NCC[C@@H]1NC(=S)c1cnc(-c2cc(F)cc(Cl)c2)s1 [Example 80, (S)-2-(3-chloro-5-fluorophenyl)-N-(2-oxopyrrolidin-3-yl)thiazole-5-carbothioamide] | 1.02 to 10 nM
C[C@H]1C[C@H](NC(=O)c2cnc(-c3cc(F)cc(Cl)c3)s2)C(=O)N1 [Example 81, 2-(3-Chloro-5-fluorophenyl)-N-((3S,5S)-5-methyl-2-oxopyrrolidin-3-yl)thiazole-5-carboxamide] | 1.02 to 10 nM
CC1(C)C[C@@H](NC(=O)c2cnc(-c3cc(F)cc(Cl)c3)s2)C(=S)N1 [Example 84, (R)-2-(3-Chloro-5-fluorophenyl)-N-(5,5-dimethyl-2-thioxopyrrolidin-3-yl)thiazole-5-carboxamide] | 102 to 1000 nM
CC1(C)C[C@H](NC(=O)c2cnc(-c3cc(F)cc(Cl)c3)s2)C(=S)N1 [Example 85, (S)-2-(3-Chloro-5-fluorophenyl)-N-(5,5-dimethyl-2-thioxopyrrolidin-3-yl)thiazole-5-carboxamide] | 1.02 to 10 nM
